Entries after “also recorded” stand apart in the source; their conditions may differ.
Columns and labels:
[1] = test system: Watanabe rabbits; conditions: 16 weeks; cited from earlier work
[2] = test system: Watanabe rabbits; assay: Lipid profile (plasmatic cholesterol, triglycerides, HDL, LDL) in treated Watanabe rabbits; type: in vivo, rabbit
Procedure: 2. […] The cholesterol is assayed according to an enzymatic colorimetric test using a cholesterol-esterase and a cholesterol-oxidase, followed by a reaction with a peroxidase. The latter reacts with hydrogen peroxide and releases a red derivative the stain intensity of which (measured between 550 and 700 nm) is directly proportional to the cholesterol concentration. The triglyceride assay is also based on this principle, using a lipase which releases glycerol, and a peroxidase which reacts with the hydrogen peroxide and forms a red compound. The HDL cholesterol is assayed by an enzymatic calorimetric test in two phases. The first selects the different lipid fractions by means of dextran sulphate. […] The results are expressed in mmol/l. The kits necessary for all these assays are supplied by RANDOX (Montpellier, France).

[3] = test system: New Zealand White rabbits; conditions: 2.5 mg/kg/day; cited from earlier work
[4] = test system: New Zealand White rabbit; conditions: cited from earlier work
[5] = test system: hypercholesterolemic rabbits; conditions: enriched diet over 12 to 16 weeks; cited from earlier work
[6] = Monitoring of the animals: weight and food intake; type: in vivo, rabbit; conditions: not included in the study
Procedure: Twenty-four Watanabe rabbits (Centre de Production Animale, Olivet, France) which are hyperlipidaemic due to an hereditary LDL-receptor (LDL-R) deficiency, homozygous, and six weeks old, are used. Each animal is placed in an individual cage and receives a food ration of 200 g to 250 g per day.
(§1) The food intake is measured daily and the animals are weighed once a week. Plasma samples are taken every fifteen days from the marginal ear vein. The blood, collected in heparin tubes, is centrifuged (4° C., 2000 g, 15 minutes). Part of the plasma is deproteinized by a solution of sulphosalicylic acid (30%) then divided into aliquot fractions with a view to an assay of the amino acids. The remainder of the plasma is aliquoted into several fractions of about 200 μl, and stored at −80° C.

[7] = rabbit, in vivo
Procedure: Each animal is placed in an individual cage and receives a food ration of 200 g to 250 g per day.
as §1
The plasmatic arginine, ornithine and citrulline concentrations are determined on a JEOL (Tokyo, Japan) amino acid analyzer. The amino acids are separated by cation-exchange chromatography. On leaving the column, they are developed by a ninhydrin stain reaction. The reaction obtained is quantified by photometry at 570 and 440 nm. The results are expressed in μmol/l.

[8] = test system: Watanabe rabbits; assay: Macroscopic study of the aortas: surface area of the lesions by planimetry; type: in vivo, rabbit
Procedure: After eight weeks, a sampling of serum (about 1 ml) is carried out then the animals are anaesthetized with an injection of heparinized pentobarbital, and finally sacrificed.
On the day of sacrifice, after anaesthesia, in the shortest possible time, the animal is opened along the whole length of the cervico-thoracic region. The aorta is incised as low as possible. Using curved scissors, the aorta is removed from the aortic arch as far as the level of the iliac bifurcation following the vertebral column. The aorta is first cleaned in physiological serum and the fatty tissues are removed from its external tunica. It is fixed for 20 minutes in a 2% paraformaldehyde-2% glutaraldehyde mixture then opened along its length. It is then again immersed in the same fixer for 24 hours, after which the aorta is rinsed in 70% ethanol, then stained with Soudan IV for 15 minutes. It is once again rinsed in 80% ethanol for 20 minutes then under running water for 1 hour (22). […] The images are analyzed by means of planimetry software (Scion Image) which makes it possible to determine the surface of the lesions. Finally the aorta is fixed in the same fixer with a view to microscopic study.

**Q.** Which “reduction in plasmatic cholesterol” value [1] does the source give for `O=C(O)C[C@H](O)C[C@H](O)/C=C/c1c(C2CC2)nc2ccccc2c1-c1ccc(F)cc1` [pitavastatin] here?
**A.** Its value is 28.6%.

**Q.** For `CC(C)c1c(C(=O)Nc2ccccc2)c(-c2ccccc2)c(-c2ccc(F)cc2)n1CC[C@@H](O)C[C@@H](O)CC(=O)O` [atorvastatin, Atorvastatin, reference compound], which “effect on LDL concentration” value ([2]; FIG. 6, during treatment) is on record?
**A.** Its value is “induces a reduction”.

**Q.** What about the “reduction of the LDL fraction” value ([2]; LDL calculated by Friedewald formula, between T0 and T8) of the same compound?
**A.** The value was 27.16%.

**Q.** And the “size of the lesions” value [3]?
**A.** Its value is “reduction in the size of the lesions”.

**Q.** Which reduction in cholesterol ([4]; 16 weeks, New Zealand White rabbit) does the source give for `CC[C@H](C)C(=O)O[C@H]1C[C@@H](C)C=C2C=C[C@H](C)[C@H](CC[C@@H]3C[C@@H](O)CC(=O)O3)[C@H]21` [lovastatin] here?
**A.** Its reduction in cholesterol is 32%.

**Q.** What about the plaque progression ([4]; New Zealand White rabbits) of the same compound?
**A.** Its plaque progression is “slowed down the plaque progression”.

**Q.** For `N=C(N)NCCC[C@H](N)C(=O)O` [arginine, L-Arginine], which “effect on the plasmatic cholesterol” value ([2]; 8 weeks treatment, versus control at T8, FIG. 3) is on record?
**A.** The value was “no effect”.

**Q.** What about the “effect on the lipid profile” value ([2]; arginine diet alone) of the same compound?
**A.** The value was “no appreciable effect”.

**Q.** And the “increase in the plasmatic cholesterol concentration” value ([2]; between T0 and T8)?
**A.** The value was 30%.

**Q.** And the “plasmatic triglycerides concentration, course” value ([2]; between T0 and T8, FIG. 4)?
**A.** Its value is “increases with age; also recorded: increase by more than half”.

**Q.** And the atheromatous plaque area [5]?
**A.** Its atheromatous plaque area is “stabilization”.

**Q.** And the “animals died before the end of the protocol” value [6]?
**A.** The value was “two animals”.

**Q.** And the “L-Arginine concentration in general” value [7]?
**A.** Its value is “doubled”.

**Q.** What about the “plasmatic arginine concentration, at T4” value [7] of the same compound?
**A.** The value was “doubled”.

**Q.** And the “plasmatic arginine concentration, at T8” value [7]?
**A.** The value was “drops”.

**Q.** And the “lesion surface smaller than the control by a factor” value ([8]; T8)?
**A.** The value was 1.3.

**Q.** What about the “surface area of the lesions (whole aorta)” value ([8]; T8, versus the control, FIG. 10) of the same compound?
**A.** The value was “smaller”.

**Q.** What about the “surface area of the lesions, distal half of the aorta” value ([8]; T8, FIG. 11) of the same compound?
**A.** Its value is “no effect”.
